The test deals with IL-2 production. Put plainly: Inhibition of IL-2 production in PHA-activated Jurkat cells (ELISA). It counts as cell-based. Particulars: Homo sapiens, Jurkat, 20 h, PHA 2.5 μg/mL, IL-2 ELISA. The protocol:
Jurkat cells were placed in a 96 well plate (0.5 million cells per well in 1% FBS medium) then a test compound of this invention was added at different concentrations. After 10 minutes, the cells were activated with PHA (final concentration 2.5 μg/mL) and incubated for 20 hours at 37° C. under CO2. The final volume was 200 μL. Following incubation, the cells were centrifuged and the supernatants collected and stored at −70° C. prior to assaying for IL-2 production. A commercial ELISA kit (IL-2 Eli-pair, Diaclone Research, Besancon, France) was used to detect production of IL-2, from which dose response curves were obtained.
(In general: An ELISA detects its analyte on a solid surface through an enzyme-linked reagent.)
Take `O=C(Nc1nc(CCl)c(-c2cccc(C(F)(F)F)c2)s1)c1c(F)cccc1F` [Compound 70, N-(4-(Chloromethyl)-5-(3-(trifluoromethyl)phenyl)thiazol-2-yl)-2,6-difluorobenzamide]: the IC50 (as a rule, the concentration needed to halve the response being measured) is more than 1000 nM.
`COc1ccc(OC)c(-c2cnc(NC(=O)c3c(F)cccc3F)s2)c1` [Compound 3, N-[5-(2,5-Dimethoxy-phenyl)-thiazol-2-yl]-2,6-difluoro-benzamide] came in with an IC50 of 100 to 200 nM.
`Nc1nc(-c2nc(NC(=O)c3c(F)cccc3F)sc2-c2cccc(C(F)(F)F)c2)cs1` [Compound 87, N-(2′-amino-5-(3-(trifluoromethyl)phenyl)-4,4′-bithiazol-2-yl)-2,6-difluorobenzamide]: the IC50 is more than 1000 nM.
`Cc1noc(-c2nc(NC(=O)c3c(F)cccc3F)sc2-c2cccc(C(F)(F)F)c2)n1` [Compound 92, 2,6-difluoro-N-(4-(3-methyl-1,2,4-oxadiazol-5-yl)-5-(3-(trifluoromethyl)phenyl)thiazol-2-yl)benzamide] showed an IC50 of 200 to 500 nM.
As to `C=Cc1nc(NC(=O)c2c(F)cccc2F)sc1-c1cccc(C(F)(F)F)c1` [Compound 75, 2,6-Difluoro-N-(5-(3-(trifluoromethyl)phenyl)-4-vinylthiazol-2-yl)benzamide], the IC50 fell in the range of 200 to 500 nM.
`O=C(Nc1nc(-c2ccccn2)c(-c2cccc(C(F)(F)F)c2)s1)c1c(F)cccc1F` [Compound 107, 2,6-Difluoro-N-(4-(pyridin-2-yl)-5-(3-(trifluoromethyl)phenyl)thiazol-2-yl)benzamide] yielded an IC50 of less than 30 nM.
The compound `O=C(Nc1nc(C2CC2)c(-c2cccc(C(F)(F)F)c2)s1)c1c(F)cccc1F` [Compound 52, N-(4-Cyclopropyl-5-(3-(trifluoromethyl)phenyl)thiazol-2-yl)-2,6-difluorobenzamide] displayed an IC50 of 50 to 100 nM.
Compound `CCOC(CNC(=O)c1nc(NC(=O)c2c(F)cccc2F)sc1-c1cccc(C(F)(F)F)c1)OCC` [Compound 98, N-(2,2-diethoxyethyl)-2-(2,6-difluorobenzamido)-5-(3-(trifluoromethyl)phenyl)thiazole-4-carboxamide] displayed an IC50 of more than 1000 nM.
For `O=C(Nc1nc(-c2cnco2)c(-c2cccc(C(F)(F)F)c2)s1)c1c(F)cccc1F` [Compound 76, 2,6-Difluoro-N-(4-(oxazol-5-yl)-5-(3-(trifluoromethyl)phenyl)thiazol-2-yl)benzamide] the value was 50 to 100 nM.
Compound `CC(C)c1nc(NC(=O)c2c(F)cccc2F)sc1-c1cccc(C(F)(F)F)c1` [Compound 69, 2,6-Difluoro-N-(4-isopropyl-5-(3-(trifluoromethyl)phenyl)thiazol-2-yl)benzamide] yielded a 50% inhibitory concentration (IC50) of 200 to 500 nM.
In the case of `Cc1nc(NC(=O)c2c(F)cccc2F)sc1-c1ccsc1` [Compound 62, 2,6-Difluoro-N-(4-methyl-5-(thiophen-3-yl)thiazol-2-yl)benzamide], the IC50 is more than 1000 nM.
Consider `Cc1nc(-c2sc(NC(=O)c3c(F)cccc3F)nc2C)cs1` [Compound 114b, N-(2,4′-Dimethyl-4,5′-bithiazol-2′-yl)-2,6-difluorobenzamide], for which the IC50 was more than 1000 nM.
`O=C(Nc1c(F)cccc1F)c1ncc(-c2cccc(-c3ncco3)c2)s1` [Compound 131, N-(2,6-difluorophenyl)-5-(3-(oxazol-2-yl)phenyl)thiazole-2-carboxamide]: the half-maximal inhibitory concentration (IC50) lay within 50 to 100 nM.
Turning to `Cn1cncc1-c1nc(NC(=O)c2c(F)cccc2F)sc1-c1cccc(C(F)(F)F)c1` [Compound 80, 2,6-Difluoro-N-(4-(1-methyl-1H-imidazol-5-yl)-5-(3-(trifluoromethyl)phenyl)thiazol-2-yl)benzamide], the IC50 was more than 1000 nM.
Compound `Cc1ccc(-c2nnco2)cc1-c1ncc(C(=O)Nc2c(F)cccc2F)s1` [Compound 128, N-(2,6-difluorophenyl)-2-(2-methyl-5-(1,3,4-oxadiazol-2-yl)phenyl)thiazole-5-carboxamide] had an IC50 of 200 to 500 nM.

The values are drawn from patent US8455658B2, “Thiazole and thiadiazole compounds for inflammation and immune-related uses” (Synta Pharmaceuticals Corp., priority 2006, dated 2013).
